From ChEMBL document CHEMBL1133875, “1-(Arylpiperazinylamidoalkyl)-pyrimidones: orally active inhibitors of lipoprotein-associated phospholipase A(2)” (Bioorg Med Chem Lett, 2001)
Blank lines part the entries; values can stand above or below the compound they belong to.

Columns and labels:
[1] = target: T1, Platelet-activating factor acetylhydrolase (Homo sapiens, UniProt Q13093); experiment: Inhibitory activity against human lipoprotein associated phospholipase A2 (Lp-PLA2)
T1 sequence (Q13093 whole entry): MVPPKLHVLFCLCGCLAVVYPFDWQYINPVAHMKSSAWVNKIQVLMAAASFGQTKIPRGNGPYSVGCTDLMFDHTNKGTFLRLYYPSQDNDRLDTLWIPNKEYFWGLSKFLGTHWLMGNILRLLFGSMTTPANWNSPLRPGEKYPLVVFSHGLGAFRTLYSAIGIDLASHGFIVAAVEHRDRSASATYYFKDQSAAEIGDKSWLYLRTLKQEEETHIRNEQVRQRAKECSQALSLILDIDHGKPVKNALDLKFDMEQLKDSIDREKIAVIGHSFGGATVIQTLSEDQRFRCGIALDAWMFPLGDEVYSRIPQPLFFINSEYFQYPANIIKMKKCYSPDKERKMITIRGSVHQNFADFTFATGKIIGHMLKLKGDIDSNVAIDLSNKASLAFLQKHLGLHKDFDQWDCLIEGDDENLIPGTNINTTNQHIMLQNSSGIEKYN

[2] = species: Rattus norvegicus; experiment: Intrinsic clearance in rat liver microsomes; assay type: ADME, Microsome
[3] = species: Homo sapiens; experiment: Intrinsic clearance in human liver microsomes; assay type: ADME, Microsome

Structure (SMILES): Cn1cc(Cc2cn(CC(=O)N3CCN(C4CCCCC4)CC3)c(SCc3ccc(F)cc3)nc2=O)cn1
IC50 [1]: 0.72 µM

Structure (SMILES): O=C(Cn1cc(Cc2cncnc2)c(=O)nc1SCc1ccc(F)cc1)N1CCN(c2cccc(Cl)c2)CC1
IC50 [1]: 0.066 µM

Structure (SMILES): O=C(Cn1cc(Cc2cncnc2)c(=O)nc1SCc1ccc(F)cc1)N1CCN(c2ccccc2)C(=O)C1
IC50 [1]: 6.7 µM

Structure (SMILES): O=C(Cn1cc(Cc2cncnc2)c(=O)nc1SCc1ccc(F)cc1)N1CCN(Cc2ccccc2)CC1
IC50 [1]: 0.085 µM

Structure (SMILES): COc1ccc(N2CCN(C(=O)Cn3cc(Cc4cncnc4)c(=O)nc3SCc3ccc(F)cc3)CC2)cc1
IC50 [1]: 0.176 µM

Structure (SMILES): O=C(Cn1cc(Cc2cncnc2)c(=O)nc1SCc1ccc(F)cc1)N1CCN(C(=O)c2ccccc2)CC1
IC50 [1]: 1.28 µM

Structure (SMILES): Cn1cc(Cc2cn(CC(=O)N3CCN(Cc4ccccc4)C(=O)C3)c(SCc3ccc(F)cc3)nc2=O)cn1
IC50 [1]: 0.53 µM

Structure (SMILES): O=C(Cn1cc(Cc2cncnc2)c(=O)nc1SCc1ccc(F)cc1)N1CCNCC1
IC50 [1]: 0.46 µM

Structure (SMILES): O=C(Cn1cc(Cc2cncnc2)c(=O)nc1SCc1ccc(F)cc1)N1CCN(c2ccccc2)CC1
IC50 [1]: 0.12 µM

Structure (SMILES): O=C(Cn1cc(Cc2cncnc2)c(=O)nc1SCc1ccc(F)cc1)N1CCN(c2cncnc2)CC1
IC50 [1]: 0.41 µM

Structure (SMILES): Cn1cc(Cc2cn(CC(=O)N3CCN(c4ccc(Cl)cc4)CC3)c(SCc3ccc(F)cc3)nc2=O)cnc1=O
CLi [2]: 3 mL/min/g
CLi [3]: 4 mL/min/g
IC50 [1]: 0.07 µM

Structure (SMILES): Cn1cc(Cc2cn(CC(=O)N3CCN(c4ccc(Br)cc4)CC3)c(SCc3ccc(F)cc3)nc2=O)cn1
IC50 [1]: 0.051 µM

Structure (SMILES): O=C(O)Cn1cc(Cc2cn(CC(=O)N3CCN(c4ccc(Cl)cc4)CC3)c(SCc3ccc(F)cc3)nc2=O)cnc1=O
IC50 [1]: 0.089 µM

Structure (SMILES): CC(=O)c1ccc(N2CCN(C(=O)Cn3cc(Cc4cncnc4)c(=O)nc3SCc3ccc(F)cc3)CC2)cc1
IC50 [1]: 0.13 µM

Structure (SMILES): COc1ncc(Cc2cn(CC(=O)N3CCN(c4ccc(Cl)c(Cl)c4)CC3)c(SCc3ccc(F)cc3)nc2=O)cn1
CLi [2]: 2 mL/min/g
CLi [3]: 7 mL/min/g

Structure (SMILES): O=C(Cn1cc(Cc2cncnc2)c(=O)nc1SCc1ccc(F)cc1)N1CCN(c2ccc(F)cc2)CC1
IC50 [1]: 0.097 µM

Structure (SMILES): O=C(Cn1cc(Cc2cnc(C(F)(F)F)nc2)c(=O)nc1SCc1ccc(F)cc1)N1CCN(c2ccc(Cl)cc2)CC1
IC50 [1]: 0.069 µM

Structure (SMILES): O=C(Cn1cc(Cc2cncnc2)c(=O)nc1SCc1ccc(F)cc1)N1CCN(c2ccccn2)CC1
IC50 [1]: 0.35 µM

Structure (SMILES): O=C(Cn1cc(Cc2cncnc2)c(=O)nc1SCc1ccc(F)cc1)N1CCN(S(=O)(=O)c2ccccc2)CC1
IC50 [1]: 0.26 µM

Continued by falling IC50 [1], values first:

IC50 [1]: 0.044 µM
Structure (SMILES): Cn1cc(Cc2cn(CC(=O)N3CCN(c4ccc(Cl)cc4)CC3)c(SCc3ccc(F)cc3)nc2=O)cn1

IC50 [1]: 0.034 µM
Structure (SMILES): CC(C)(C)c1ncc(Cc2cn(CC(=O)N3CCN(c4ccc(Cl)cc4)CC3)c(SCc3ccc(F)cc3)nc2=O)cn1

IC50 [1]: 0.029 µM
Structure (SMILES): CN(C)c1ncc(Cc2cn(CC(=O)N3CCN(c4ccc(Cl)cc4)CC3)c(SCc3ccc(F)cc3)nc2=O)cn1

IC50 [1]: 0.026 µM
Structure (SMILES): O=C(Cn1cc(Cc2cncnc2)c(=O)nc1SCc1ccc(F)cc1)N1CCN(c2ccc(C(F)(F)F)cc2)CC1

IC50 [1]: 0.024 µM
Structure (SMILES): CCCCCCCCN1CCN(C(=O)Cn2cc(Cc3cnn(C)c3)c(=O)nc2SCc2ccc(F)cc2)CC1

IC50 [1]: 0.021 µM
Structure (SMILES): O=C(Cn1cc(Cc2cnc(C3CC3)nc2)c(=O)nc1SCc1ccc(F)cc1)N1CCN(c2ccc(Cl)cc2)CC1

CLi [2]: 2 mL/min/g
CLi [3]: 3 mL/min/g
IC50 [1]: 0.02 µM
Structure (SMILES): COc1ncc(Cc2cn(CC(=O)N3CCN(c4ccc(Cl)cc4)CC3)c(SCc3ccc(F)cc3)nc2=O)cn1

CLi [2]: 3 mL/min/g
CLi [3]: 7 mL/min/g
IC50 [1]: 0.018 µM
Structure (SMILES): Cc1ncc(Cc2cn(CC(=O)N3CCN(c4ccc(Cl)cc4)CC3)c(SCc3ccc(F)cc3)nc2=O)cn1

CLi [2]: 6 mL/min/g
CLi [3]: 11 mL/min/g
IC50 [1]: 0.012 µM
Structure (SMILES): Cn1cc(Cc2cn(CC(=O)N3CCN(c4ccc(Cl)c(Cl)c4)CC3)c(SCc3ccc(F)cc3)nc2=O)cn1

CLi [2]: 13 mL/min/g
CLi [3]: > 50 mL/min/g
IC50 [1]: 0.01 µM
Structure (SMILES): O=C(Cn1cc(Cc2cnc(N3CCOCC3)nc2)c(=O)nc1SCc1ccc(F)cc1)N1CCN(c2ccc(Cl)cc2)CC1

IC50 [1]: 0.009 µM
Structure (SMILES): Cn1cc(Cc2cn(CCCC(=O)N3CCN(c4ccc(Cl)c(Cl)c4)CC3)c(SCc3ccc(F)cc3)nc2=O)cnc1=O

IC50 [1]: 0.009 µM
Structure (SMILES): O=C(O)Cn1cc(Cc2cn(CCCC(=O)N3CCN(c4ccc(Cl)c(Cl)c4)CC3)c(SCc3ccc(F)cc3)nc2=O)cnc1=O

CLi [2]: 19 mL/min/g
CLi [3]: > 50 mL/min/g
IC50 [1]: 0.008 µM
Structure (SMILES): COc1ncc(Cc2cn(CCCC(=O)N3CCN(c4ccc(Cl)cc4)CC3)c(SCc3ccc(F)cc3)nc2=O)cn1

IC50 [1]: 0.005 µM
Structure (SMILES): Cn1cc(Cc2cn(CCCC(=O)N3CCN(c4ccc(C(F)(F)F)cc4)CC3)c(SCc3ccc(F)cc3)nc2=O)cn1

IC50 [1]: 0.003 µM
Structure (SMILES): Cn1cc(Cc2cn(CCCC(=O)N3CCN(c4ccc(Cl)cc4)CC3)c(SCc3ccc(F)cc3)nc2=O)cn1

IC50 [1]: 0.002 µM
Structure (SMILES): COc1ncc(Cc2cn(CCCC(=O)N3CCN(c4ccc(Cl)c(Cl)c4)CC3)c(SCc3ccc(F)cc3)nc2=O)cn1

IC50 [1]: 0.002 µM
Structure (SMILES): COc1ncc(Cc2cn(CCCC(=O)N3CCN(c4ccc(C(F)(F)F)cc4)CC3)c(SCc3ccc(F)cc3)nc2=O)cn1

IC50 [1]: 0.001 µM
Structure (SMILES): CCCCCCCCCCCCN(C)C(=O)Cn1cc(Cc2cnc(OC)nc2)c(=O)nc1SCc1ccc(F)cc1

IC50 [1]: 0.0004 µM
Structure (SMILES): CCCCCCCC/C=C/CCCCCCCCNC(=O)CCCn1cc(Cc2cncnc2)c(=O)nc1SCc1ccc(F)cc1
